Results on one molecule are retold here after patent US8815933B2 (EnVivo Pharmaceuticals, Inc., priority 2008, dated 2014).

Data set [1] is described as follows: half-life in dog. Conditions: in vivo, iv.
The nature of data set [2]: free fraction of drug in rat plasma.
Experimental: (§1) The free drug concentration in plasma ([free drug]plasma) is determined by measuring the total drug concentration in the plasma ([total drug]plasma) and the free fraction of the drug, i.e., the fraction of the drug that is not bound to plasma protein (fuplasma):[free drug]plasma=[total drug]plasmaX fuplasma. The total plasma drug concentration and the fraction that binds to plasma protein can both be measured using techniques known to those of skill in the art.
Data set [3] can be described thus: free fraction of drug in dog plasma.
Experimental: as §1
Data set [4] in a line: free fraction of drug in human plasma.
Experimental: as §1
Data set [5] can be described thus: half-life in rat. The following applies: in vivo, iv, 1 mg/kg.
Data set [6] in a line: half-life in humans (clinical trials). Type of data set: in vivo, Human. Conditions: for half-life: plasma, 1 mg. The text has this: The unexpectedly long half-life in humans has several advantages. It allows for once a day dosing. The drug will also have a very small dynamic plasma range over the course of a day (about 15-20%). Thus, if a patient misses a daily dose, the plasma level and the consequent brain level will not be altered by a great degree. This means that the beneficial effects of the drug will be less dependent upon careful adherence to a specific dosing scheme. Third, long half-life and slow elimination also mean that the final dose will be lower than expected. This readily observed by looking at the Cmax values on Day 1 versus Day 21. The Cmax values on Day 21 are about 3.6-4.2 times higher than the Day 1 values. This ratio will translate into a dose that is 3.6-4.2 times lower than would normally be expected due to this favorable accumulation.

Data set [7] in a line: maximum plasma concentration in human SAD/MAD clinical trials. Type of data set: in vivo. Conditions: human, once a day dosing. Here is the method: Multiple ascending dose (MAD) human clinical trials were conducted.
These values are 35-2000 times lower than would have anticipated if efficacy was to be achieved when the free plasma concentration reached the Ki or the ECref concentrations. […] These values are 9.4-667 times lower than expected.

Molecules are shown by their SMILES.

Consider `O=C(N[C@H]1CN2CCC1CC2)c1cc2cccc(Cl)c2s1`, for which the half-life in data set [1] (0.5 mg/kg) is 5.39 h; in data set [1] (3 mg/kg), 13 h; in data set [5] it was 2.77 h; in data set [6] (human, oral, read-out: observed half-life in humans (converted)), 60 h; in data set [6] (po, Human, p.o., read-out: t1/2) it was 50.1 to 70.1 h. In data set [2], this molecule had a Rat fuplasma of 0.112. In addition, the Dog fuplasma in data set [3] was 0.107. Moreover, the Human fuplasma in data set [4] is recorded as 0.129. Further, the “human half-life suggested by initial allometric scaling” value in data set [6] (scaled from rat and dog half-life) is reported as “about 8 hours”. For the same molecule, in data set [7], the “dynamic plasma range over the course of a day” value is reported as 15-20%.
